# According to a melting point compilation (Tetko et al.; mined from patent text by program, amines drawn as free bases though some values may be those of a salt):
row,melting point [°C],SMILES
1,120 to 122,OCc1cccc2c1CCCN2
2,97 to 100,O=C1OC(O)c2c(F)cccc21 (stereo not given)
3,173 to 174,CN(C)Cn1nc(-c2ccncc2)n(-c2ccccc2)c1=S
4,103 to 106,CC(=NOCCOS(C)(=O)=O)c1ccc(-c2ccc(F)cc2)cc1
5,180 to 182,OCC1OC(n2cc(COc3ccc(C4=NC(=Nc5[nH]c(-c6ccc(O)cc6)cc5-c5ccccc5)C(c5ccccc5)=C4)cc3)nn2)C(O)C(O)C1O (stereo not given)
6,123 to 125,CCN(CC)CCn1c2ccccc2c(=NN=C2SCCN2C)c2ccccc21
7,145 to 147,COc1ccc2[nH]nc(N3CCN(CCCc4c(C)[nH]c5ccccc45)CC3)c2c1
8,115 to 118,Fc1ccc(-c2cn(-c3ccncc3)c3ccccc23)cc1
9,148,c1ccc2oc(NCc3ccncc3)nc2c1
10,106 to 107,CC(=O)c1cn(-c2c(Cl)cc(OC(F)(F)F)cc2Cl)nc1C#N
11,25 to 27,CCCCCCCCCCCCCCCCSCC(C)(CO)C(=O)OC (stereo not given)
12,198,COC(=O)c1ccc(-c2nc(NCc3ccc4c(c3)OCO4)c3c4c(sc3n2)CCCC4)cc1
13,167 to 168,COc1cc(O)cc2cc(-c3ccc(O)cc3)oc12
14,147 to 149,COc1ccc(CN(CC(=O)O)c2nc(NC(=O)Nc3ccccc3OC)nc(Nc3ccccc3-c3ccccc3)n2)cc1
15,155 to 158,COC(=O)c1ccccc1Nc1cc(C(C)(C)C)c(O)c(C(C)(C)C)c1
16,113 to 116,CC(C)(C)OC(=O)NCc1ccc(C(=O)NCCC(=O)OCc2ccccc2)cc1
17,51 to 53,O=C(CCCl)c1cc2c(s1)CCCC2
18,54 to 55.5,CCOC(=O)CC1CCc2c(oc3ccc(Cl)cc23)C1 (stereo not given)
19,176 to 178,O=C(O)c1cc(S(=O)C(F)(F)F)c(Cl)cc1Cl (stereo not given)
20,190 to 191,Fc1cccc(CSc2nnc(-c3ccnc4[nH]ccc34)o2)c1

row,melting point [°C],SMILES
1,118 to 126,COc1ccc2c(c1)CCC1CCNC(=O)C(CC(C)NC(C)C)=C21 (stereo not given)
2,133 to 134,CC(C)C[C@H](NC(=O)[C@H](CC(C)C)N[C@H](CC(C)C)C(=O)OCc1ccccc1)C(=O)N[C@@H](C)C(N)=O
3,85 to 87,CC(C)(C)OC(=O)CN1C(=O)C(N)C1CCc1ccco1 (stereo not given)
4,135,CS(=O)(=O)Cc1cc(F)cc(F)c1
5,108,C=CCOC(=O)c1c(C)nc2c(cnn2Cc2ccccc2)c1N
6,108 to 110,CC[C@@H](c1ccccc1)N(Cc1ccc(C(=O)OC)cc1)S(=O)(=O)c1ccc(Cl)cc1
7,277 to 278,COc1ccc(S)c(-n2c(=O)[nH]cc(C(=O)O)c2=O)c1
8,174 to 176,COc1ccccc1N1CCN(CCn2c(=O)c3ccsc3n(C)c2=O)CC1
9,86 to 87,CN(C)CCCCC(N)=O
10,157 to 159,O=C1COC(CNC(=O)c2cccnc2Oc2ccc(F)cc2)CN1 (stereo not given)
11,336 to 338,N#CC(C#N)=C1c2cc(N)c(Cl)cc2-c2cc(Cl)c(N)cc21
12,92 to 93,N#Cc1ccc(C(=C2CCCCC2)c2nc[nH]n2)cc1
13,129 to 140,CC(=O)NC1(c2ccc(CN3CCN(c4ccccc4)CC3)cc2)CC1
14,103 to 104,C#Cc1ccc(=O)n(C(C)C)n1
15,104 to 106,CCCCOC(=O)NCC(=O)NCC1C2CCC(O2)C1CC=CCCCC(=O)O (stereo not given)
16,131 to 144,Cc1cc(F)ccc1-c1nc(NCCNC(=O)NC2CCCCC2)nc2c1ccc(=O)n2-c1c(F)cccc1F
17,192 to 194,CN(C)CCCN1C(=O)c2cc(Cl)c(S(N)(=O)=O)cc2C1=O
18,104,CCCCCCCCCCCCOc1ccc(-c2cc3ccccc3[nH]2)cc1OC
19,175 to 176,O=C(Cc1ccc2[nH]cc(CCN3C(=O)c4ccccc4C3=O)c2c1)NC1CCCCC1

row,SMILES,melting point [°C]
1,N#CC1(c2ccc(F)cc2)CCC(N2CCC(C(=O)O)(c3ccccc3)CC2)CC1 (stereo not given),281
